Each block holds one compound with its values, some of them ahead of it.
Test system: 922993-354-T-J3-PDC complex spheroids, viability, % test/control
Assay: Anticancer human tumor 922993-354-T-J3-PDC patient-derived endometrial carcinoma cell line growth inhibition [CLK]
Details: for IC50: curve of first compound; for viability, T/C: stronger effect = lower value
Procedure, shortened: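 Patient-derived tumor cells grown as complex spheroids with HUVEC endothelial cells and mesenchymal stem cells, treated with drug combinations. Concentrations descend in half-log steps from near clinical Cmax, or from 10 microM if Cmax unknown.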

[1] = second compound 0.0316 µM, first compound 0.00949 µM
[2] = second compound 0.0316 µM, first compound 0.03 µM
[3] = second compound 0.0316 µM, first compound 0.0949 µM
[4] = second compound 0.0316 µM, first compound 0.3 µM
[5] = second compound 0.1 µM, first compound 0.00949 µM
[6] = second compound 0.1 µM, first compound 0.03 µM
[7] = second compound 0.1 µM, first compound 0.0949 µM
[8] = second compound 0.1 µM, first compound 0.3 µM
[9] = second compound 0.316 µM, first compound 0.00949 µM
[10] = second compound 0.316 µM, first compound 0.03 µM
[11] = second compound 0.316 µM, first compound 0.0949 µM
[12] = second compound 0.316 µM, first compound 0.3 µM
[13] = second compound 1 µM, first compound 0.00949 µM
[14] = second compound 1 µM, first compound 0.03 µM
[15] = second compound 1 µM, first compound 0.0949 µM
[16] = second compound 1 µM, first compound 0.3 µM
[17] = second compound 3.16 µM, first compound 0.00949 µM
[18] = second compound 3.16 µM, first compound 0.03 µM
[19] = second compound 3.16 µM, first compound 0.0949 µM
[20] = second compound 3.16 µM, first compound 0.3 µM
[21] = second compound 10 µM, first compound 0.00949 µM
[22] = second compound 10 µM, first compound 0.03 µM
[23] = second compound 10 µM, first compound 0.0949 µM
[24] = second compound 10 µM, first compound 0.3 µM
[25] = second compound 0.0316 µM, first compound 0.0316 µM
[26] = second compound 0.0316 µM, first compound 0.1 µM
[27] = second compound 0.0316 µM, first compound 0.316 µM
[28] = second compound 0.0316 µM, first compound 1 µM
[29] = second compound 0.0316 µM, first compound 3.16 µM
[30] = second compound 0.0316 µM, first compound 10 µM
[31] = second compound 0.1 µM, first compound 0.0316 µM
[32] = second compound 0.1 µM, first compound 0.1 µM
[33] = second compound 0.1 µM, first compound 0.316 µM
[34] = second compound 0.1 µM, first compound 1 µM
[35] = second compound 0.1 µM, first compound 3.16 µM
[36] = second compound 0.1 µM, first compound 10 µM
[37] = second compound 0.316 µM, first compound 0.0316 µM
[38] = second compound 0.316 µM, first compound 0.1 µM
[39] = second compound 0.316 µM, first compound 0.316 µM
[40] = second compound 0.316 µM, first compound 1 µM
[41] = second compound 0.316 µM, first compound 3.16 µM
[42] = second compound 0.316 µM, first compound 10 µM
[43] = second compound 1 µM, first compound 0.0316 µM
[44] = second compound 1 µM, first compound 0.1 µM
[45] = second compound 1 µM, first compound 0.316 µM
[46] = second compound 1 µM, first compound 1 µM
[47] = second compound 1 µM, first compound 3.16 µM
[48] = second compound 1 µM, first compound 10 µM
[49] = second compound 3.16 µM, first compound 0.0316 µM
[50] = second compound 3.16 µM, first compound 0.1 µM
[51] = second compound 3.16 µM, first compound 0.316 µM
[52] = second compound 3.16 µM, first compound 1 µM
[53] = second compound 3.16 µM, first compound 3.16 µM
[54] = second compound 3.16 µM, first compound 10 µM
[55] = second compound 10 µM, first compound 0.0316 µM
[56] = second compound 10 µM, first compound 0.1 µM
[57] = second compound 10 µM, first compound 0.316 µM
[58] = second compound 10 µM, first compound 1 µM
[59] = second compound 10 µM, first compound 3.16 µM
[60] = second compound 10 µM, first compound 10 µM
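Further: spheroids exposed to the agents for 7 days before readout.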

- IC50 (second compound 0.0316 µM): > 300 nM
- IC50 (second compound 0.1 µM): > 300 nM
- IC50 (second compound 0.316 µM): > 300 nM
- IC50 (second compound 1 µM): < 0.949 nM
- IC50 (second compound 3.16 µM): < 0.949 nM
- IC50 (second compound 10 µM): < 0.949 nM
SMILES: C=CC(=O)Nc1cc(Nc2nccc(-c3cn(C)c4ccccc34)n2)c(OC)cc1N(C)CCN(C)C + CNC(=O)c1ccc(Nc2nc(OC3CCCC3)c3c(-c4ccc5nc(C)oc5c4)c[nH]c3n2)c(OC)c1
- viability, T/C (second compound 0.0316 µM, first compound 0.000949 µM): 106%
- viability, T/C (second compound 0.0316 µM, first compound 0.003 µM): 105%
- viability, T/C [1]: 106%
- viability, T/C [2]: 102%
- viability, T/C [3]: 96.9%
- viability, T/C [4]: 89.2%
- viability, T/C (second compound 0.1 µM, first compound 0.000949 µM): 97.5%
- viability, T/C (second compound 0.1 µM, first compound 0.003 µM): 107%
- viability, T/C [5]: 96.4%
- viability, T/C [6]: 98.3%
- viability, T/C [7]: 91.2%
- viability, T/C [8]: 86%
- viability, T/C (second compound 0.316 µM, first compound 0.000949 µM): 70.7%
- viability, T/C (second compound 0.316 µM, first compound 0.003 µM): 58.9%
- viability, T/C [9]: 55.5%
- viability, T/C [10]: 42%
- viability, T/C [11]: 57.1%
- viability, T/C [12]: 51.2%
- viability, T/C (second compound 1 µM, first compound 0.000949 µM): 37.5%
- viability, T/C (second compound 1 µM, first compound 0.003 µM): 34.9%
- viability, T/C [13]: 41.9%
- viability, T/C [14]: 42%
- viability, T/C [15]: 34.6%
- viability, T/C [16]: 35.5%
- viability, T/C (second compound 3.16 µM, first compound 0.000949 µM): 35.8%
- viability, T/C (second compound 3.16 µM, first compound 0.003 µM): 33%
- viability, T/C [17]: 34%
- viability, T/C [18]: 34.6%
- viability, T/C [19]: 34%
- viability, T/C [20]: 29.9%
- viability, T/C (second compound 10 µM, first compound 0.000949 µM): 26.8%
- viability, T/C (second compound 10 µM, first compound 0.003 µM): 29.7%
- viability, T/C [21]: 30%
- viability, T/C [22]: 30.2%
- viability, T/C [23]: 29%
- viability, T/C [24]: 32.5%

- IC50 (second compound 0.0316 µM): > 10000 nM
- IC50 (second compound 0.1 µM): > 10000 nM
- IC50 (second compound 0.316 µM): 4840 nM
- IC50 (second compound 1 µM): < 31.6 nM
- IC50 (second compound 3.16 µM): < 31.6 nM
- IC50 (second compound 10 µM): < 31.6 nM
SMILES: CC1(C)CCC(CN2CCN(c3ccc(C(=O)NS(=O)(=O)c4ccc(NCC5CCOCC5)c([N+](=O)[O-])c4)c(Oc4cnc5[nH]ccc5c4)c3)CC2)=C(c2ccc(Cl)cc2)C1 + CNC(=O)c1ccc(Nc2nc(OC3CCCC3)c3c(-c4ccc5nc(C)oc5c4)c[nH]c3n2)c(OC)c1
- viability, T/C [25]: 108%
- viability, T/C [26]: 96%
- viability, T/C [27]: 102%
- viability, T/C [28]: 88%
- viability, T/C [29]: 108%
- viability, T/C [30]: 66.1%
- viability, T/C [31]: 108%
- viability, T/C [32]: 105%
- viability, T/C [33]: 110%
- viability, T/C [34]: 104%
- viability, T/C [35]: 113%
- viability, T/C [36]: 61.5%
- viability, T/C [37]: 69.8%
- viability, T/C [38]: 62.8%
- viability, T/C [39]: 61.3%
- viability, T/C [40]: 58.7%
- viability, T/C [41]: 64.4%
- viability, T/C [42]: 27.1%
- viability, T/C [43]: 36.3%
- viability, T/C [44]: 37.7%
- viability, T/C [45]: 27.1%
- viability, T/C [46]: 38.2%
- viability, T/C [47]: 31.8%
- viability, T/C [48]: 17.9%
- viability, T/C [49]: 29.6%
- viability, T/C [50]: 33.6%
- viability, T/C [51]: 28.6%
- viability, T/C [52]: 31.3%
- viability, T/C [53]: 29%
- viability, T/C [54]: 15.4%
- viability, T/C [55]: 31.4%
- viability, T/C [56]: 25.7%
- viability, T/C [57]: 26%
- viability, T/C [58]: 25%
- viability, T/C [59]: 29.4%
- viability, T/C [60]: 13.6%

- IC50 (second compound 0.0316 µM): 583 nM
- IC50 (second compound 0.1 µM): 467 nM
- IC50 (second compound 0.316 µM): 205 nM
- IC50 (second compound 1 µM): 48.6 nM
- IC50 (second compound 3.16 µM): 44.6 nM
- IC50 (second compound 10 µM): 36.4 nM
SMILES: NC(=O)C(=Cn1cnc(-c2cc(C(F)(F)F)cc(C(F)(F)F)c2)n1)c1cncnc1 + CNC(=O)c1ccc(Nc2nc(OC3CCCC3)c3c(-c4ccc5nc(C)oc5c4)c[nH]c3n2)c(OC)c1
- viability, T/C [1]: 120%
- viability, T/C [2]: 123%
- viability, T/C [3]: 98.3%
- viability, T/C [4]: 57.7%
- viability, T/C (second compound 0.0316 µM, first compound 0.949 µM): 50.4%
- viability, T/C (second compound 0.0316 µM, first compound 3 µM): 34.6%
- viability, T/C [5]: 107%
- viability, T/C [6]: 120%
- viability, T/C [7]: 102%
- viability, T/C [8]: 54%
- viability, T/C (second compound 0.1 µM, first compound 0.949 µM): 49.4%
- viability, T/C (second compound 0.1 µM, first compound 3 µM): 36.7%
- viability, T/C [9]: 81.1%
- viability, T/C [10]: 99%
- viability, T/C [11]: 71%
- viability, T/C [12]: 37.3%
- viability, T/C (second compound 0.316 µM, first compound 0.949 µM): 41.7%
- viability, T/C (second compound 0.316 µM, first compound 3 µM): 40.2%
- viability, T/C [13]: 56.8%
- viability, T/C [14]: 63.2%
- viability, T/C [15]: 36.2%
- viability, T/C [16]: 18%
- viability, T/C (second compound 1 µM, first compound 0.949 µM): 29%
- viability, T/C (second compound 1 µM, first compound 3 µM): 22.2%
- viability, T/C [17]: 58.8%
- viability, T/C [18]: 67.8%
- viability, T/C [19]: 24.5%
- viability, T/C [20]: 12.4%
- viability, T/C (second compound 3.16 µM, first compound 0.949 µM): 18.9%
- viability, T/C (second compound 3.16 µM, first compound 3 µM): 6.38%
- viability, T/C [21]: 46.6%
- viability, T/C [22]: 65.3%
- viability, T/C [23]: 20.4%
- viability, T/C [24]: 8.4%
- viability, T/C (second compound 10 µM, first compound 0.949 µM): 11.9%
- viability, T/C (second compound 10 µM, first compound 3 µM): 3.1%

- IC50 (second compound 0.0316 µM): > 10000 nM
- IC50 (second compound 0.1 µM): 6250 nM
- IC50 (second compound 0.316 µM): 2290 nM
- IC50 (second compound 1 µM): < 31.6 nM
- IC50 (second compound 3.16 µM): < 31.6 nM
- IC50 (second compound 10 µM): < 31.6 nM
SMILES: Nc1ccccc1NC(=O)c1ccc(CNC(=O)OCc2cccnc2)cc1 + CNC(=O)c1ccc(Nc2nc(OC3CCCC3)c3c(-c4ccc5nc(C)oc5c4)c[nH]c3n2)c(OC)c1
- viability, T/C [25]: 106%
- viability, T/C [26]: 99.7%
- viability, T/C [27]: 93.3%
- viability, T/C [28]: 86.6%
- viability, T/C [29]: 65.1%
- viability, T/C [30]: 52.1%
- viability, T/C [31]: 106%
- viability, T/C [32]: 93.8%
- viability, T/C [33]: 97.7%
- viability, T/C [34]: 77.4%
- viability, T/C [35]: 58.4%
- viability, T/C [36]: 44.4%
- viability, T/C [37]: 59.1%
- viability, T/C [38]: 50%
- viability, T/C [39]: 57.9%
- viability, T/C [40]: 51.9%
- viability, T/C [41]: 49.3%
- viability, T/C [42]: 34.4%
- viability, T/C [43]: 37.6%
- viability, T/C [44]: 37%
- viability, T/C [45]: 31.9%
- viability, T/C [46]: 34.4%
- viability, T/C [47]: 31.9%
- viability, T/C [48]: 8.75%
- viability, T/C [49]: 29%
- viability, T/C [50]: 30.7%
- viability, T/C [51]: 27.9%
- viability, T/C [52]: 31.5%
- viability, T/C [53]: 24.8%
- viability, T/C [54]: 6.59%
- viability, T/C [55]: 28.8%
- viability, T/C [56]: 24.2%
- viability, T/C [57]: 24.8%
- viability, T/C [58]: 30.1%
- viability, T/C [59]: 17.2%
- viability, T/C [60]: 5.11%

From PubChem BioAssay AID2060606 (Molecular Pharmacology Branch, DTP, NCI, 2025)
